For this assay, the target named is T1, Human M4 (Homo sapiens, UniProt P08173).
T1 construct: Human or rat M4 cDNA, along with the chimeric G protein Gq,5, were transfected into Chinese hamster ovary (CHO-K1) cells; expressed in transfected cells; host or cells: CHO-K1 (M4/Gqi5/CHO)
T1 sequence (P08173 1-479): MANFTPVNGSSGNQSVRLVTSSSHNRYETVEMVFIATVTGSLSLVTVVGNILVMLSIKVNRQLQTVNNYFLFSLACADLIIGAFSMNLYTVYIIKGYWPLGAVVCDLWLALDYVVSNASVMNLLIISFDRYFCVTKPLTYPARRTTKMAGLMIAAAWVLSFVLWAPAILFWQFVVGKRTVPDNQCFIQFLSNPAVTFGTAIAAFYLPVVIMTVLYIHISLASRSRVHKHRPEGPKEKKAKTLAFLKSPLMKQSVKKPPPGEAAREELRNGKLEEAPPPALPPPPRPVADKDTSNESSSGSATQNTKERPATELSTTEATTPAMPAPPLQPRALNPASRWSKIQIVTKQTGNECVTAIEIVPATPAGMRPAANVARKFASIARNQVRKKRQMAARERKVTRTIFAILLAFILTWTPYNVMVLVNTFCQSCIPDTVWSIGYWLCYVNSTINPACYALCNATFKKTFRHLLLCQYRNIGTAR
Nature of the assay: mAChR M4 cell-based functional assay (calcium flux, decrease of EC80 acetylcholine response). The conditions noted are these: for Human M4 Emin: % ACh maximum at 30 μM; for pIC50: CHO-K1 cells with human M4 and Gqi5, EC80 acetylcholine. On the procedure: Human or rat M4 cDNA, along with the chimeric G protein Gq,5, were transfected into Chinese hamster ovary (CHO-K1) cells purchased from the American Type Culture Collection using Lipofectamine2000. M4/Gqi5/CHO cells were grown in Ham's F-12 medium containing 10% heat-inactivated fetal bovine serum (FBS), 20 mM HEPES, 500 μg/mL G^418 sulfate, and 200 μg/mL Hygromycin B.
For high throughput measurement of agonist-evoked increases in intracellular calcium, CHO-K1 cells stably expressing muscarinic receptors were plated in growth medium lacking G418 and hygromycin at 15,000 cells/20 μL/well in Greiner 384-well black-walled, tissue culture (TC)-treated, clear-bottom plates (VWR). Cells were incubated overnight at 37° C. and 5% CO2. The next day, cells were washed using an ELX 405 (BioTek) with assay buffer; the final volume was then aspirated to 20 μL. Next, 20 μL of a 2.3 μM stock of Fluo-4/acetoxymethyl ester (Invitrogen, Carlsbad, Calif.), prepared as a 2.3 mM stock in DMSO and mixed in a 1:1 ratio with 10% (w/v) Pluronic F-127 and diluted in assay buffer, was added to the wells and the cell plates were incubated for 50 min at 37° C. and 5% CO2. Dye was removed by washing with the ELX 405 and the final volume was aspirated to 20 μL. Compound master plates were formatted in a 10 point concentration-response curve (CRC) format (1:3 dilutions) in 100% DMSO with a starting concentration of 10 or 1 mM using a BRAVO liquid handler (Agilent). Test compound CRCs were then transferred to daughter plates (240 nL) using the Echo acoustic plate reformatter (Labcyte, Sunnyvale, Calif.) and then diluted into assay buffer (40 μL) to a 2× stock using a Thermo Fisher Combi (Thermo Fisher Scientific, Waltham, Mass.).
Calcium flux was measured using the Functional Drug Screening System (FDSS) 6000 or 7000 (Hamamatsu Corporation, Tokyo, Japan) as an increase in the fluorescent static ratio. Compounds were applied to cells (20 μL, 2×) using the automated system of the FDSS at 2 seconds into the protocol and the data were collected at 1 Hz. At 143 s, 10 μL of an EC20 concentration of the muscarinic receptor agonist acetylcholine was added (5×), followed by the addition of […] of an EC80 concentration of acetylcholine at the 268 s time point (5×). Agonist activity was analyzed as a concentration-dependent increase in calcium mobilization upon compound addition. Positive allosteric modulator activity was analyzed as a concentration-dependent increase in the EC2o acetylcholine response. Antagonist activity was analyzed as a concentration-dependent decrease in the EC80 acetylcholine response; for the purposes of the tables herein, an IC50 (inhibitory concentration 50) was calculated as a concentration-dependent decrease of the response elicited by an EC80 concentration of acetylcholine. Concentration-response curves were generated using a four-parameter logistical equation in XLFit curve fitting software (IDBS, Bridgewater, N.J.) for Excel (Microsoft, Redmond, Wash.) or Prism (GraphPad Software, Inc., San Diego, Calif.) or the Dotmatics software platform (Dotmatics, Bishop's Stortford, UK).
Compounds were synthesized as described above. Activity (IC50 and Emin) was determined in the mAChR M4 cell-based functional assay as described above and the data are shown in Table 2.
On the technique in general: Calcium assays in cells follow changes in intracellular calcium, usually with a dye or a luminescent sensor.

pIC50: −log10 of the molar value.

The term pIC50 denotes −log10 of the IC50, conventionally taken in molar units.

Regarding `CC1(O)CC(CN2C[C@H]3C[C@H](Nc4ccc(-c5cc(F)cc(F)c5F)nn4)C[C@H]3C2)C1` (stereo partly drawn) [Compound 52], the “Human M4 Emin” value is 3% and the negative-log IC50 (pIC50) was 7.77.
On the same counts, the results for `Fc1cc(F)c(F)c(-c2ccc(N[C@H]3C[C@@H]4CN(CC5(F)CCCCC5)C[C@@H]4C3)nn2)c1` [Compound 87, (3aR,5s,6aS)-2-((1-fluorocyclohexyl)methyl)-N-(6-(2,3,5-trifluorophenyl)pyridazin-3-yl)octahydrocyclopenta[c]pyrrol-5-amine] are 3% and 7.39.
Regarding `[2H]C(C)(c1ccccn1)N1C[C@H]2C[C@H](Nc3ccc(-c4cc(F)cc(F)c4F)nn3)C[C@H]2C1` (stereo partly drawn) [Compound 15, (3aR,5s,6aS)-2-(1-(pyridin-2-yl)ethyl-1-d)-N-(6-(2,3,5-trifluorophenyl)pyridazin-3-yl)octahydrocyclopenta[c]pyrrol-5-amine], the “Human M4 Emin” value worked out at 2% and the negative logarithm of the IC50 (pIC50) was 7.02.
On the same counts, the results for `Fc1ccc(CN2C[C@H]3C[C@H](Nc4ccc(-c5cc(F)cc(F)c5F)nn4)C[C@H]3C2)c(F)c1` [Compound 91, (3aR,5s,6aS)-2-(2,4-difluorobenzyl)-N-(6-(2,3,5-trifluorophenyl)pyridazin-3-yl)octahydrocyclopenta[c]pyrrol-5-amine] are 4% and 6.44.
As to `[2H]C([2H])([C@@H]1CCOC1)N1C[C@H]2C[C@H](Nc3ccc(-c4cc(F)cc(F)c4F)nn3)C[C@H]2C1` [Compound 44, (3aR,5s,6aS)-2-(((S)-tetrahydrofuran-3-yl)methyl-d2)-N-(6-(2,3,5-trifluorophenyl)pyridazin-3-yl)octahydrocyclopenta[c]pyrrol-5-amine], the “Human M4 Emin” value was 2% and the pIC50 was 7.50.
As to `[2H]C([2H])(C1CCCOCC1)N1C[C@H]2C[C@H](Nc3ccc(-c4cc(F)cc(F)c4F)nn3)C[C@H]2C1` (stereo partly drawn) [Compound 78, (3aR,5s,6aS)-2-(oxepan-4-ylmethyl-d2)-N-(6-(2,3,5-trifluorophenyl)pyridazin-3-yl)octahydrocyclopenta[c]pyrrol-5-amine], the “Human M4 Emin” value was found to be 2% and the negative logarithm of the IC50 (pIC50) is 8.92.
With `Fc1cc(F)c(F)c(-c2ccc(N[C@H]3C[C@@H]4CN(Cc5ccc6c(c5)OC(F)(F)O6)C[C@@H]4C3)nn2)c1` [Compound 37, (3aR,5s,6aS)-2-((2,2-difluorobenzo[d][1,3]dioxol-5-yl)methyl)-N-(6-(2,3,5-trifluorophenyl)pyridazin-3-yl)octahydrocyclopenta[c]pyrrol-5-amine], the “Human M4 Emin” value was 11% and the pIC50 was 6.00.
For `OC1(CN2C[C@H]3C[C@H](Nc4ccc(-c5cc(F)cc(F)c5F)nn4)C[C@H]3C2)CCCCCC1` [Compound 62], the “Human M4 Emin” value stood at 3% and the negative-log IC50 (pIC50) is 5.48.
On to `Fc1ccc(CN2C[C@H]3C[C@H](Nc4ccc(-c5cc(F)cc(F)c5F)nn4)C[C@H]3C2)nc1` [Compound 21, (3aR,5s,6aS)-2-((5-fluoropyridin-2-yl)methyl)-N-(6-(2,3,5-trifluorophenyl)pyridazin-3-yl)octahydrocyclopenta[c]pyrrol-5-amine], for which the “Human M4 Emin” value is 4% and the negative-log IC50 (pIC50) was 7.44.
For `Fc1cc(F)c(F)c(-c2ccc(N[C@H]3C[C@@H]4CN(CCC5COC5)C[C@@H]4C3)nn2)c1` [Compound 84, (3aR,5s,6aS)-2-(2-(oxetan-3-yl)ethyl)-N-(6-(2,3,5-trifluorophenyl)pyridazin-3-yl)octahydrocyclopenta[c]pyrrol-5-amine], the “Human M4 Emin” value is listed as 4% and the pIC50 is 7.14.
For the molecule `[2H]C([2H])([C@@H]1CCCCO1)N1C[C@H]2C[C@H](Nc3ccc(-c4cc(F)cc(F)c4F)nn3)C[C@H]2C1` [Compound 43, (3aR,5s,6aS)-2-(((S)-tetrahydro-2H-pyran-2-yl)methyl-d2)-N-(6-(2,3,5-trifluorophenyl)pyridazin-3-yl)octahydrocyclopenta[c]pyrrol-5-amine], the “Human M4 Emin” value came out at 4% and the pIC50 is 9.02.
For `OC1(CN2C[C@H]3C[C@H](Nc4ccc(-c5cc(F)cc(F)c5F)nn4)C[C@H]3C2)CCCC1` [Compound 61, 1-(((3aR,5s,6aS)-5-((6-(2,3,5-trifluorophenyl)pyridazin-3-yl)amino)hexahydrocyclopenta[c]pyrrol-2(1H)-yl)methyl)cyclopentan-1-ol], the “Human M4 Emin” value is listed as 2% and the negative-log IC50 (pIC50) is 8.64.
For the molecule `[2H]C([2H])(COC(C)(C)C)N1C[C@H]2C[C@H](Nc3ccc(-c4cc(F)cc(F)c4F)nn3)C[C@H]2C1` [Compound 56, (3aR,5s,6aS)-2-(2-(tert-butoxy)ethyl-1,1-d2)-N-(6-(2,3,5-trifluorophenyl)pyridazin-3-yl)octahydrocyclopenta[c]pyrrol-5-amine], the “Human M4 Emin” value is on record as 3% and the pIC50 is 8.52.
On to `[2H]C([2H])(c1c(F)cccc1F)N1C[C@H]2C[C@H](Nc3ccc(-c4cc(F)cc(F)c4F)nn3)C[C@H]2C1` [Compound 92, (3aR,5s,6aS)-2-((2,6-difluorophenyl)methyl-d2)-N-(6-(2,3,5-trifluorophenyl)pyridazin-3-yl)octahydrocyclopenta[c]pyrrol-5-amine], for which the “Human M4 Emin” value was 7% and the pIC50 is 6.12.
For `CC(C)C(O)CN1C[C@H]2C[C@H](Nc3ccc(-c4cc(F)cc(F)c4F)nn3)C[C@H]2C1` (stereo partly drawn) [Compound 64, 3-methyl-1-((3aR,5s,6aS)-5-((6-(2,3,5-trifluorophenyl)pyridazin-3-yl)amino)hexahydrocyclopenta[c]pyrrol-2(1H)-yl)butan-2-ol], in that order: 5% and 8.14.
As to `Fc1cc(F)c(F)c(-c2ccc(N[C@H]3C[C@@H]4CN(Cc5cc(Cl)ccn5)C[C@@H]4C3)nn2)c1` [Compound 19, (3aR,5s,6aS)-2-((4-chloropyridin-2-yl)methyl)-N-(6-(2,3,5-trifluorophenyl)pyridazin-3-yl)octahydrocyclopenta[c]pyrrol-5-amine], the “Human M4 Emin” value is listed as 3% and the negative-log IC50 (pIC50) is 6.88.
In the case of `Fc1cc(F)c(F)c(-c2ccc(N[C@H]3C[C@@H]4CN(C[C@@H]5CC6CCC5O6)C[C@@H]4C3)nn2)c1` (stereo partly drawn) [Compound 32, (3aR,5s,6aS)-2-(((2S)-7-oxabicyclo[2.2.1]heptan-2-yl)methyl)-N-(6-(2,3,5-trifluorophenyl)pyridazin-3-yl)octahydrocyclopenta[c]pyrrol-5-amine], the “Human M4 Emin” value turned out to be 3% and the negative-log IC50 (pIC50) was 9.32.
Consider `Fc1cc(F)c(F)c(-c2ccc(N[C@H]3C[C@@H]4CN(Cc5cccc(F)n5)C[C@@H]4C3)nn2)c1` [Compound 22, (3aR,5s,6aS)-2-((6-fluoropyridin-2-yl)methyl)-N-(6-(2,3,5-trifluorophenyl)pyridazin-3-yl)octahydrocyclopenta[c]pyrrol-5-amine], for which the “Human M4 Emin” value was found to be 4% and the pIC50 was 7.10.

The values above are taken from patent US20230150986A1, “ANTAGONISTS OF THE MUSCARINIC ACETYLCHOLINE RECEPTOR M4” (Vanderbilt University, priority 2019, published 2023).
